Source: ChEMBL document CHEMBL1158294, “Antiplatelet arylnaphthalide lignans from Justicia procumbens” (J Nat Prod, 1996)

Test system: Platelet
Assay: Inhibition of arachidonic acid-induced platelet aggregation in rabbit […] by turbidimetric method
Type: functional, cell-based
Conditions: Oryctolagus cuniculus

Question: How did the IC50 turn out when `COc1ccc(-c2c3c(c(OC)c4cc5c(cc24)OCO5)COC3=O)cc1OC` [CHINENSINAPHTHOL METHYL ETHER] was run?
Answer: The IC50 was 18.8 µM.

Question: Which IC50 does the source give for `COc1cc2c(O)c3c(c(-c4ccc5c(c4)OCO5)c2cc1OC)C(=O)OC3` [DIPHYLLIN] here?
Answer: The IC50 was > 100 µM.

Question: `COc1ccc2c(c1)c(CC(=O)O)c(C)n2C(=O)c1ccc(Cl)cc1` [INDOMETHACIN] was tested. Which IC50 did it give?
Answer: Its IC50 is 0.21 µM.

Question: How did the IC50 turn out when `COc1c2c(c(-c3ccc4c(c3)OCO4)c3cc4c(cc13)OCO4)COC2=O` [NEOJUSTICIN A] was run?
Answer: The IC50 was 1.1 µM.

Question: For `O=C1OCc2c1c(-c1ccc3c(c1)OCO3)c1cc3c(cc1c2O)OCO3` [TAIWANIN E], which IC50 is on record?
Answer: The IC50 was 8 µM.

Question: How did the IC50 turn out when `CC(=O)Oc1ccccc1C(=O)O` [ASPIRIN] was run?
Answer: Its IC50 is 20.3 µM.

Question: How did the IC50 turn out when `COc1cc2c(OC)c3c(c(-c4ccc5c(c4)OCO5)c2cc1OC)COC3=O` [NEOJUSTICIN B] was run?
Answer: The IC50 was 50.8 µM.

Question: Which IC50 does the source give for `COc1c2c(c(-c3ccc4c(c3)OCO4)c3cc4c(cc13)OCO4)C(=O)OC2` [TAIWANIN E METHYL ETHER] here?
Answer: The IC50 was 1.7 µM.

Question: For `COc1cc2c(OC)c3c(c(-c4ccc5c(c4)OCO5)c2cc1OC)C(=O)OC3` [JUSTICIDIN A], which IC50 is on record?
Answer: The IC50 was 31.7 µM.
